Assay results taken from patent publication US9550821B2, “Modulation of ghrelin levels and ghrelin/unacylated ghrelin ratio using unacylated ghrelin” (ALIZÉ PHARMA SAS, priority 2012, dated 2017).
Where no end group is shown, it is not given here.

Columns and labels:
[1] = test system: glucose, insulin and lipid metabolisms; settings: cited from earlier work; for smallest UAG fragment retaining UAG biological activity: from U.S. Pat. Nos. 8,222,217, 8,318,664 and WO/2008/145749; for retention of UAG full length activity on glucose, insulin and lipid metabolisms: from U.S. Pat. Nos. 8,222,217 and 8,318,664
[2] = Overnight (15 hours) UAG infusion in T2DM subjects: serum UAG levels by MSD ELISA; format: in vivo, human; settings: placebo 105.9±31.4
Description: (§1) A continuous overnight (15 hours) infusion of two doses of UAG (3 μg UAG/kg/hr and 10 μg UAG/kg/hr) versus placebo in a cross-over model on the AG concentrations was performed in eight overweight subjects with type 2 diabetes. FIG. 1 depicts a schematic representation of the study protocol. Glucose and insulin responses to a standard breakfast meal (SBM) in the subjects and reasonable metabolic control were assessed.
Single-center, investigator initiated, double blind and placebo controlled randomized study. During the first visit medical history, medication use and vital signs of subjects were checked. Blood samples were also taken for chemistry and hematology analysis. […]
Infusions were performed at the local clinical research unit for 15 hours from 9 pm to […]. […] The dose was calculated based on the subject's weight. […]
Standard breakfast meal (SBM) consisted of: • 3 slices wheat bread; • 3 portions of margarine; • 2 slices of cheese (48% fat); • 1 portion of jam; • 1 cup of whole milk; and • 1 boiled egg; for a total of 714 kcal (17% proteins; 46% fat; and 37% carbohydrates). […] At each of the 3 visits, the following safety parameters were assessed: hemoglobin, hematocrit, platelet count, WBC count, RBC count, and differential and were determined using Sysmex XE 2100, Firma Sysmex, Ecustraat 11, 4879 NP Etten-Leur. […]

[3] = Safety evaluation during overnight UAG infusion in T2DM subjects; format: in vivo, human
Description: as §1
Standard breakfast meal (SBM) consisted of: • 3 slices wheat bread; • 3 portions of margarine; • 2 slices of cheese (48% fat); • 1 portion of jam; • 1 cup of whole milk; and • 1 boiled egg; for a total of 714 kcal (17% proteins; 46% fat; and 37% carbohydrates). […] At each of the 3 visits, the following safety parameters were assessed: hemoglobin, hematocrit, platelet count, WBC count, RBC count, and differential and were determined using Sysmex XE 2100, Firma Sysmex, Ecustraat 11, 4879 NP Etten-Leur. AST, ALT, alkaline phosphatase, total bilirubin, creatine phophokinase (CPK), lactate dehydrogenase (LDH), creatinine, urea, amylase, lipase, uric acid, glucose, cholesterol, LDL, HDL, triglycerides, sodium, potassium, calcium, chloride, protein and albumin are determined using the Hitachi Modular P800, Roche Transistorstraat 41, 1332 CK Almere. […] AG and UAG levels were assessed before the start of the overnight infusion, 10 minutes before the start and 30 minutes after the SBM. […]

AG-induced food intake = AG-induced food intake in rats; format: in vivo, Sprague-Dawley rats; settings: rat, i.p. 42 μg/kg together with AG 13 μg/kg; food intake at 30 min, 1 h, 2 h
Description: With respect to the experimental data presented in FIG. 8, Sprague-Dawley rats of 7 weeks of age, weighing between 275 g and 300 g, were fed a pellet diet ad libitum and were singly housed in plastic cage. The experiment was performed at 2.5 h after the onset of the light cycle in freely fed rats. The rates were i.p. injected simultaneously with vehicle plus vehicle, vehicle+AG (13 μg/kg) or cyclised UAG (6-13) (SEQ ID NO: 25) (42 μg/kg)+AG (13 μg/kg). Immediately after the completion of the i.p. injection in rats, the night-ad-libitum food was removed and replaced by 2 pellets for each animal, previously weighed, placed into the top of the cage. Food intake was calculated as the difference between the food weight before and after the feeding period at each time interval (30 min, 1 h, and 2 h). Cumulative food intake was calculated by summating the values of the different time periods.

Compound: His-Gln-Arg-Val (HQRV; listed as Homo sapiens) [UAG (9-12)]
- smallest UAG fragment retaining UAG biological activity [1]: smallest UAG fragment to retain the biological activity of UAG
- retention of UAG full length activity on glucose, insulin and lipid metabolisms [1]: retain the activity of UAG full length

Compound: Glu-His-Gln-Arg-Val (EHQRV; listed as Homo sapiens) [UAG (8-12)]
- retention of UAG full length activity on glucose, insulin and lipid metabolisms [1]: retain the activity of UAG full length

Compound: CC(C)C[C@H](NC(=O)[C@H](CCCCN)NC(=O)[C@H](C)NC(=O)[C@@H]1CCCN1C(=O)[C@@H]1CCCN1C(=O)[C@H](CCCCN)NC(=O)[C@H](CCCCN)NC(=O)[C@H](CO)NC(=O)[C@H](CCC(=O)O)NC(=O)[C@H](CCCCN)NC(=O)[C@H](CCCNC(=N)N)NC(=O)[C@H](CCC(N)=O)NC(=O)[C@H](CCC(N)=O)NC(=O)[C@@H](NC(=O)[C@H](CCCNC(=N)N)NC(=O)[C@H](CCC(N)=O)NC(=O)[C@H](Cc1cnc[nH]1)NC(=O)[C@H](CCC(=O)O)NC(=O)[C@@H]1CCCN1C(=O)[C@H](CO)NC(=O)[C@H](CC(C)C)NC(=O)[C@H](Cc1ccccc1)NC(=O)[C@H](CO)NC(=O)[C@H](CO)NC(=O)CN)C(C)C)C(=O)N[C@@H](CCC(N)=O)C(=O)N1CCC[C@H]1C(=O)N[C@@H](CCCNC(=N)N)C(=O)O [UAG]
- serum UAG levels before start of the SBM (mean±SD) ([2]; 3 mcg/kg·hr UAG overnight infusion): 10998 ± 2623 pg/mL
- serum UAG levels before start of the SBM (mean±SD) ([2]; 10 mcg/kg·hr UAG overnight infusion): 12085 ± 1616 pg/mL
- laboratory evaluations ([3]; 3 and 10 μg UAG/kg/hr overnight infusion): no significant changes in chemistry or parameters
- side effects reported by subjects ([3]; 3 and 10 μg UAG/kg/hr overnight infusion vs placebo): did not report more side effects than placebo

Compound: Ser-Pro-Glu-His-Gln-Arg-Val-Gln (cycl) (SPEHQRVQ; cyclised; (1)..(8) Cyclic; listed as Homo sapiens) [cyclic UAG (6-13)]
- effect on AG-induced food intake (orexigenic effect) (AG-induced food intake): able to counteract the orexigenic effects induced by AG

Compound: His-Gln-Arg (HQR; listed as Homo sapiens) [UAG (9-11)]
- retention of UAG full length activity on glucose, insulin and lipid metabolisms [1]: retain the activity of UAG full length

Compound: SPEHQRVQ [UAG (6-13)]
- retention of UAG full length activity on glucose, insulin and lipid metabolisms [1]: retain the activity of UAG full length

Compound: Glu-His-Gln-Arg (EHQR; listed as Homo sapiens) [UAG (8-11)]
- smallest UAG fragment retaining UAG biological activity [1]: smallest UAG fragment to retain UAG activities
- retention of UAG full length activity on glucose, insulin and lipid metabolisms [1]: retain the activity of UAG full length

Compound: EHQRVQ [UAG (8-13)]
- retention of UAG full length activity on glucose, insulin and lipid metabolisms [1]: retain the activity of UAG full length
